How the values were obtained:
[1] = test system: participants with narcolepsy or OSA; assay: 1-year OLE study: blood pressure, parent study baseline to OLE week 40; type: in vivo, human; conditions: Weight loss ≥5% at Week 40
Description: (§1) A 1-year open-label extension (OLE) study was performed with 374 participants to examined whether clinically significant weight loss (≥5%) in this population had favorable effects on biomarkers of cardiovascular risk compared to no such weight loss. The study measured changes in weight and BP (parent study baseline to OLE week 40) and clinical laboratory assessments (OLE baseline to week 40) in participants with narcolepsy (n=124) or OSA (n=250) who received solriamfetol at doses of 75, 150, or 300 mg/d.
(§2) We evaluated changes in weight and BP (parent study baseline to OLE week 40) and clinical laboratory assessments (OLE baseline to week 40) in participants with narcolepsy (n=124) or OSA (n=250) from the OLE study.

[2] = 1-year open-label extension (OLE) study: weight change; type: in vivo, human
Description: as §1
Increased prevalence of obesity has been reported in patients with narcolepsy and obstructive sleep apnea (OSA). […] We examined whether clinically significant weight loss (≥5%) in this population had favorable effects on biomarkers of cardiovascular risk compared to no such weight loss.
as §2

[3] = all doses, listed as solriamfetol

NC(=O)OC[C@H](N)Cc1ccccc1 [Solriamfetol, (R)-2-amino-3-phenylpropyl carbamate]
DBP maximum changes from baseline to week 40: Decrease ≥10% ([1]; 75 mg/d): 0 n (%) | DBP maximum changes from baseline to week 40: Decrease ≥20% ([1]; 75 mg/d): 0 n (%) | DBP maximum changes from baseline to week 40: Decrease ≥30% ([1]; 75 mg/d): 0 n (%) | DBP maximum changes from baseline to week 40: Increase ≥10% ([1]; 75 mg/d): 0 n (%) | DBP maximum changes from baseline to week 40: Increase ≥20% ([1]; 75 mg/d): 0 n (%) | DBP maximum changes from baseline to week 40: Increase ≥30% ([1]; 75 mg/d): 0 n (%) | SBP Change - Wk 40, Mean (SD) ([1]; 75 mg/d): −3.3 mmHg | SBP Change - Wk 40, Median ([1]; 75 mg/d): −3.3 mmHg | SBP maximum changes from baseline to week 40: Decrease ≥10% ([1]; 75 mg/d): 0 n (%) | SBP maximum changes from baseline to week 40: Decrease ≥20% ([1]; 75 mg/d): 0 n (%) | SBP maximum changes from baseline to week 40: Decrease ≥30% ([1]; 75 mg/d): 0 n (%) | SBP maximum changes from baseline to week 40: Increase ≥10% ([1]; 75 mg/d): 0 n (%) | SBP maximum changes from baseline to week 40: Increase ≥20% ([1]; 75 mg/d): 0 n (%) | SBP maximum changes from baseline to week 40: Increase ≥30% ([1]; 75 mg/d): 0 n (%) | DBP Change - Wk 40, Mean (SD) ([1]; 150 mg/d): −1.9 (9.9) mmHg | DBP Change - Wk 40, Median ([1]; 150 mg/d): 0.5 mmHg | DBP maximum changes from baseline to week 40: Decrease ≥10% ([1]; 150 mg/d): 5 (22.7) n (%) | DBP maximum changes from baseline to week 40: Decrease ≥20% ([1]; 150 mg/d): 1 (4.5) n (%) | DBP maximum changes from baseline to week 40: Decrease ≥30% ([1]; 150 mg/d): 0 n (%) | DBP maximum changes from baseline to week 40: Increase ≥10% ([1]; 150 mg/d): 3 (13.6) n (%) | DBP maximum changes from baseline to week 40: Increase ≥20% ([1]; 150 mg/d): 0 n (%) | DBP maximum changes from baseline to week 40: Increase ≥30% ([1]; 150 mg/d): 0 n (%) | SBP Change - Wk 40, Mean (SD) ([1]; 150 mg/d): −4.5 (13.8) mmHg | SBP Change - Wk 40, Median ([1]; 150 mg/d): −2.8 mmHg | SBP maximum changes from baseline to week 40: Decrease ≥10% ([1]; 150 mg/d): 7 (31.8) n (%) | SBP maximum changes from baseline to week 40: Decrease ≥20% ([1]; 150 mg/d): 1 (4.5) n (%) | SBP maximum changes from baseline to week 40: Decrease ≥30% ([1]; 150 mg/d): 1 (4.5) n (%) | SBP maximum changes from baseline to week 40: Increase ≥10% ([1]; 150 mg/d): 3 (13.6) n (%) | SBP maximum changes from baseline to week 40: Increase ≥20% ([1]; 150 mg/d): 1 (4.5) n (%) | SBP maximum changes from baseline to week 40: Increase ≥30% ([1]; 150 mg/d): 0 n (%) | DBP Change - Wk 40, Mean (SD) ([1]; 300 mg/d): −0.8 (8.9) mmHg | DBP Change - Wk 40, Median ([1]; 300 mg/d): −0.3 mmHg | DBP maximum changes from baseline to week 40: Decrease ≥10% ([1]; 300 mg/d): 11 (15.1) n (%) | DBP maximum changes from baseline to week 40: Decrease ≥20% ([1]; 300 mg/d): 3 (4.1) n (%) | DBP maximum changes from baseline to week 40: Decrease ≥30% ([1]; 300 mg/d): 0 n (%) | DBP maximum changes from baseline to week 40: Increase ≥10% ([1]; 300 mg/d): 8 (11.0) n (%) | DBP maximum changes from baseline to week 40: Increase ≥20% ([1]; 300 mg/d): 0 n (%) | DBP maximum changes from baseline to week 40: Increase ≥30% ([1]; 300 mg/d): 0 n (%) | SBP Change - Wk 40, Mean (SD) ([1]; 300 mg/d): −2.0 (10.8) mmHg | SBP Change - Wk 40, Median ([1]; 300 mg/d): −1.8 mmHg | SBP maximum changes from baseline to week 40: Decrease ≥10% ([1]; 300 mg/d): 20 (27.4) n (%) | SBP maximum changes from baseline to week 40: Decrease ≥20% ([1]; 300 mg/d): 2 (2.7) n (%) | SBP maximum changes from baseline to week 40: Decrease ≥30% ([1]; 300 mg/d): 0 n (%) | SBP maximum changes from baseline to week 40: Increase ≥10% ([1]; 300 mg/d): 13 (17.8) n (%) | SBP maximum changes from baseline to week 40: Increase ≥20% ([1]; 300 mg/d): 1 (1.4) n (%) | SBP maximum changes from baseline to week 40: Increase ≥30% ([1]; 300 mg/d): 0 n (%) | DBP Change - Wk 40, Median ([1]; all doses): −0.3 mmHg | DBP maximum changes from baseline to week 40: Decrease ≥10% ([1]; all doses): 16 (16.7) n (%) | DBP maximum changes from baseline to week 40: Decrease ≥20% ([1]; all doses): 4 (4.2) n (%) | DBP maximum changes from baseline to week 40: Decrease ≥30% ([1]; all doses): 0 n (%) | DBP maximum changes from baseline to week 40: Increase ≥10% ([1]; all doses): 11 (11.5) n (%) | DBP maximum changes from baseline to week 40: Increase ≥20% ([1]; all doses): 0 n (%) | DBP maximum changes from baseline to week 40: Increase ≥30% ([1]; all doses): 0 n (%) | SBP Change - Wk 40, Median ([1]; all doses): −2.8 mmHg | SBP maximum changes from baseline to week 40: Decrease ≥10% ([1]; all doses): 27 (28.1) n (%) | SBP maximum changes from baseline to week 40: Decrease ≥20% ([1]; all doses): 3 (3.1) n (%) | SBP maximum changes from baseline to week 40: Decrease ≥30% ([1]; all doses): 1 (1.0) n (%) | SBP maximum changes from baseline to week 40: Increase ≥10% ([1]; all doses): 16 (16.7) n (%) | SBP maximum changes from baseline to week 40: Increase ≥20% ([1]; all doses): 2 (2.1) n (%) | SBP maximum changes from baseline to week 40: Increase ≥30% ([1]; all doses): 0 n (%) | DBP Change - Wk 40, Mean (SD) ([1]; all doses, listed as Solri): −1.0 (9.0) mmHg | SBP Change - Wk 40, Mean (SD) ([1]; all doses, listed as Solri): −2.6 (11.4) mmHg | DBP Change - Wk 40, Mean (SD) [1, 3]: −1.0±9.0 mmHg | SBP Change - Wk 40, Mean (SD) [1, 3]: −2.6±11.4 mmHg | participants with ≥5% weight loss ([2]; 1-year OLE, narcolepsy or OSA, 75 mg/d): 4.5% | participants with ≥5% weight loss ([2]; 1-year OLE, narcolepsy or OSA, 150 mg/d): 17.3% | participants with ≥5% weight loss ([2]; 1-year OLE, narcolepsy or OSA, 300 mg/d): 32.4% | participants with ≥5% weight gain ([2]; of 374 participants, all doses, 34 participants, week 40): 9.1 % of total population | participants with ≥5% weight loss ([2]; of 374 participants, all doses, 96 participants, week 40): 25.7%

Source: patent publication US20240358668A1, “METHODS AND CO[…] AM[…] CARD[…] USING (R)-2-AMINO-3-PH[…]” (AXSOME THERAPEUTICS, INC., priority 2021, published 2024)
